Here are results for four compounds from US11542304B2, “Multimeric bicyclic peptide ligands” (BicycleTx Limited, priority 2018, dated 2023).

In the data set the target is CD137 (Homo sapiens, UniProt Q07011). Nature of the data set: CD137 Promega reporter cell activity assay (NF-κB luciferase in Jurkat cells). As to conditions: for Average Fold EC50 Improvement relative to CD137L: Average EC50 for CD137L = 14.2 nM; for Average Relative Fold Induction relative to CD137L: Average fold induction for CD137L = 4.0.
Sequence of CD137 (Q07011 24-255): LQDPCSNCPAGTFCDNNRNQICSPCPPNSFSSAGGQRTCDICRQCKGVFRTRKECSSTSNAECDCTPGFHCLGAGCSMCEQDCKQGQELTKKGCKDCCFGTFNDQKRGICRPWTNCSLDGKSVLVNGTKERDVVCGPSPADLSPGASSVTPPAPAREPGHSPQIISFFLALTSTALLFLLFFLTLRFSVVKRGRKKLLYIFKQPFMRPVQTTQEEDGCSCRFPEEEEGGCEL

Method: CD137 binding multimers were evaluated for CD137 using a Reporter cell activity assay that uses NF-κB luciferase luminescence as a read-out of CD137 activation in Jurkat cells. […] Samples were diluted at concentration expected to give the maximum fold induction and then titrated down in 1/3 dilution series or 1/10 dilution series in a sterile 96 well-plate. […] 50 μl cells were added per well to white cell culture plates.
Cells were co-incubated together with agonists for 6 h at 37° C., 5% CO2. After 6 h Bio-Glo™ was thawed and the assay developed at room-temperature. 75 ul Bio-Glo™ was added per well and incubated for 5-10 min. Luciferase signal was read on a Pherastar plate-reader using MARS program. Data was analysed by transforming the data to x=log (X), then plotting log (agonist) vs. response variable slope (4 parameters) to calculate EC50 values.

In the case of `CC[C@H](C)[C@@H]1NC(=O)[C@@H](NC(=O)[C@H](C)NC(C)=O)CSCCC(=O)N2CN3CN(C2)C(=O)CCSC[C@H](NC(=O)[C@H](Cc2ccc(O)cc2)NC(=O)[C@H](CCC(N)=O)NC(=O)CNC(=O)[C@H](CCC(=O)O)NC(=O)[C@H](CCC(=O)O)NC1=O)C(=O)N[C@@H](Cc1ccccc1)C(=O)N[C@@H](C)C(=O)N[C@@H](CC(=O)O)C(=O)N1CCC[C@H]1C(=O)N[C@@H](Cc1ccc(O)cc1)C(=O)N[C@@H](CCCCNC(=O)OCC1C2CCc4nnn(CCOCCOCCOCCOCCOCCOCCOCCOCCOCCOCCNC(=O)CCOCCN(CCOCCC(=O)NCCOCCOCCOCCOCCOCCOCCOCCOCCOCCOCCn5nnc6c5CCC5C(CC6)C5COC(=O)NCCCC[C@@H]5NC(=O)[C@H](Cc6ccc(O)cc6)NC(=O)[C@@H]6CCCN6C(=O)[C@H](CC(=O)O)NC(=O)[C@H](C)NC(=O)[C@H](Cc6ccccc6)NC(=O)[C@@H]6CSCCC(=O)N7CN(CN(C7)C(=O)CCSC[C@@H](C(=O)N[C@@H](C)C(N)=O)NC5=O)C(=O)CCSC[C@H](NC(=O)[C@H](C)NC(C)=O)C(=O)N[C@@H]([C@@H](C)CC)C(=O)N[C@@H](CCC(=O)O)C(=O)N[C@@H](CCC(=O)O)C(=O)NCC(=O)N[C@@H](CCC(N)=O)C(=O)N[C@@H](Cc5ccc(O)cc5)C(=O)N6)CCOCCC(=O)NCCOCCOCCOCCOCCOCCOCCOCCOCCOCCOCCn5nnc6c5CCC5C(CC6)C5COC(=O)NCCCC[C@@H]5NC(=O)[C@H](Cc6ccc(O)cc6)NC(=O)[C@@H]6CCCN6C(=O)[C@H](CC(=O)O)NC(=O)[C@H](C)NC(=O)[C@H](Cc6ccccc6)NC(=O)[C@@H]6CSCCC(=O)N7CN(CN(C7)C(=O)CCSC[C@@H](C(=O)N[C@@H](C)C(N)=O)NC5=O)C(=O)CCSC[C@H](NC(=O)[C@H](C)NC(C)=O)C(=O)N[C@@H]([C@@H](C)CC)C(=O)N[C@@H](CCC(=O)O)C(=O)N[C@@H](CCC(=O)O)C(=O)NCC(=O)N[C@@H](CCC(N)=O)C(=O)N[C@@H](Cc5ccc(O)cc5)C(=O)N6)c4CCC21)C(=O)N[C@H](C(=O)N[C@@H](C)C(N)=O)CSCCC3=O` (some centres unmarked) [BCY8106], the “Average Fold EC50 Improvement relative to CD137L” value was 1.26 and the “Average Relative Fold Induction relative to CD137L” value is 0.94.

For the compound `CC[C@H](C)[C@@H]1NC(=O)[C@@H](NC(=O)[C@H](C)NC(C)=O)CSCCC(=O)N2CN3CN(C2)C(=O)CCSC[C@H](NC(=O)[C@H](Cc2ccc(O)cc2)NC(=O)[C@H](CCC(N)=O)NC(=O)CNC(=O)[C@H](CCC(=O)O)NC(=O)[C@H](CCC(=O)O)NC1=O)C(=O)N[C@@H](Cc1ccccc1)C(=O)N[C@@H](C)C(=O)N[C@@H](CC(=O)O)C(=O)N1CCC[C@H]1C(=O)N[C@@H](Cc1ccc(O)cc1)C(=O)N[C@@H](CCCCNC(=O)OCC1C2CCc4nnn(CCOCCOCCOCCOCCOCCOCCOCCOCCOCCOCCOCCOCCOCCOCCOCCOCCOCCOCCOCCOCCOCCOCCOCCNC(=O)CCOCCN(CCOCCC(=O)NCCOCCOCCOCCOCCOCCOCCOCCOCCOCCOCCOCCOCCOCCOCCOCCOCCOCCOCCOCCOCCOCCOCCOCCn5nnc6c5CCC5C(CC6)C5COC(=O)NCCCC[C@@H]5NC(=O)[C@H](Cc6ccc(O)cc6)NC(=O)[C@@H]6CCCN6C(=O)[C@H](CC(=O)O)NC(=O)[C@H](C)NC(=O)[C@H](Cc6ccccc6)NC(=O)[C@@H]6CSCCC(=O)N7CN(CN(C7)C(=O)CCSC[C@@H](C(=O)N[C@@H](C)C(N)=O)NC5=O)C(=O)CCSC[C@H](NC(=O)[C@H](C)NC(C)=O)C(=O)N[C@@H]([C@@H](C)CC)C(=O)N[C@@H](CCC(=O)O)C(=O)N[C@@H](CCC(=O)O)C(=O)NCC(=O)N[C@@H](CCC(N)=O)C(=O)N[C@@H](Cc5ccc(O)cc5)C(=O)N6)CCOCCC(=O)NCCOCCOCCOCCOCCOCCOCCOCCOCCOCCOCCOCCOCCOCCOCCOCCOCCOCCOCCOCCOCCOCCOCCOCCn5nnc6c5CCC5C(CC6)C5COC(=O)NCCCC[C@@H]5NC(=O)[C@H](Cc6ccc(O)cc6)NC(=O)[C@@H]6CCCN6C(=O)[C@H](CC(=O)O)NC(=O)[C@H](C)NC(=O)[C@H](Cc6ccccc6)NC(=O)[C@@H]6CSCCC(=O)N7CN(CN(C7)C(=O)CCSC[C@@H](C(=O)N[C@@H](C)C(N)=O)NC5=O)C(=O)CCSC[C@H](NC(=O)[C@H](C)NC(C)=O)C(=O)N[C@@H]([C@@H](C)CC)C(=O)N[C@@H](CCC(=O)O)C(=O)N[C@@H](CCC(=O)O)C(=O)NCC(=O)N[C@@H](CCC(N)=O)C(=O)N[C@@H](Cc5ccc(O)cc5)C(=O)N6)c4CCC21)C(=O)N[C@H](C(=O)N[C@@H](C)C(N)=O)CSCCC3=O` (some centres unmarked) [BCY8107], the “Average Fold EC50 Improvement relative to CD137L” value worked out at 64.33 and the “Average Relative Fold Induction relative to CD137L” value was 0.64.

`CC[C@H](C)[C@@H]1NC(=O)[C@@H](NC(=O)[C@H](C)NC(C)=O)CSCCC(=O)N2CN3CN(C2)C(=O)CCSC[C@H](NC(=O)[C@H](Cc2ccc(O)cc2)NC(=O)[C@H](CCC(N)=O)NC(=O)CNC(=O)[C@H](CCC(=O)O)NC(=O)[C@H](CCC(=O)O)NC1=O)C(=O)N[C@@H](Cc1ccccc1)C(=O)N[C@@H](C)C(=O)N[C@@H](CC(=O)O)C(=O)N1CCC[C@H]1C(=O)N[C@@H](Cc1ccc(O)cc1)C(=O)N[C@@H](CCCCNC(=O)OCC1C2CCc4nnn(CCOCCOCCOCCOCCOCCOCCOCCOCCOCCOCCNC(=O)CCOCC(COCCC(=O)NCCOCCOCCOCCOCCOCCOCCOCCOCCOCCOCCn5nnc6c5CCC5C(CC6)C5COC(=O)NCCCC[C@@H]5NC(=O)[C@H](Cc6ccc(O)cc6)NC(=O)[C@@H]6CCCN6C(=O)[C@H](CC(=O)O)NC(=O)[C@H](C)NC(=O)[C@H](Cc6ccccc6)NC(=O)[C@@H]6CSCCC(=O)N7CN(CN(C7)C(=O)CCSC[C@@H](C(=O)N[C@@H](C)C(N)=O)NC5=O)C(=O)CCSC[C@H](NC(=O)[C@H](C)NC(C)=O)C(=O)N[C@@H]([C@@H](C)CC)C(=O)N[C@@H](CCC(=O)O)C(=O)N[C@@H](CCC(=O)O)C(=O)NCC(=O)N[C@@H](CCC(N)=O)C(=O)N[C@@H](Cc5ccc(O)cc5)C(=O)N6)(COCCC(=O)NCCOCCOCCOCCOCCOCCOCCOCCOCCOCCOCCn5nnc6c5CCC5C(CC6)C5COC(=O)NCCCC[C@@H]5NC(=O)[C@H](Cc6ccc(O)cc6)NC(=O)[C@@H]6CCCN6C(=O)[C@H](CC(=O)O)NC(=O)[C@H](C)NC(=O)[C@H](Cc6ccccc6)NC(=O)[C@@H]6CSCCC(=O)N7CN(CN(C7)C(=O)CCSC[C@@H](C(=O)N[C@@H](C)C(N)=O)NC5=O)C(=O)CCSC[C@H](NC(=O)[C@H](C)NC(C)=O)C(=O)N[C@@H]([C@@H](C)CC)C(=O)N[C@@H](CCC(=O)O)C(=O)N[C@@H](CCC(=O)O)C(=O)NCC(=O)N[C@@H](CCC(N)=O)C(=O)N[C@@H](Cc5ccc(O)cc5)C(=O)N6)COCCC(=O)NCCOCCOCCOCCOCCOCCOCCOCCOCCOCCOCCn5nnc6c5CCC5C(CC6)C5COC(=O)NCCCC[C@@H]5NC(=O)[C@H](Cc6ccc(O)cc6)NC(=O)[C@@H]6CCCN6C(=O)[C@H](CC(=O)O)NC(=O)[C@H](C)NC(=O)[C@H](Cc6ccccc6)NC(=O)[C@@H]6CSCCC(=O)N7CN(CN(C7)C(=O)CCSC[C@@H](C(=O)N[C@@H](C)C(N)=O)NC5=O)C(=O)CCSC[C@H](NC(=O)[C@H](C)NC(C)=O)C(=O)N[C@@H]([C@@H](C)CC)C(=O)N[C@@H](CCC(=O)O)C(=O)N[C@@H](CCC(=O)O)C(=O)NCC(=O)N[C@@H](CCC(N)=O)C(=O)N[C@@H](Cc5ccc(O)cc5)C(=O)N6)c4CCC21)C(=O)N[C@H](C(=O)N[C@@H](C)C(N)=O)CSCCC3=O` (some centres unmarked) [BCY8108]: the “Average Fold EC50 Improvement relative to CD137L” value stood at 34.03 and the “Average Relative Fold Induction relative to CD137L” value amounted to 0.79.

With `CCCC[C@@H]1NC(=O)[C@H](Cc2ccc(O)cc2)NC(=O)[C@@H]2CCCN2C(=O)[C@H](CC(=O)O)NC(=O)[C@H](C)NC(=O)[C@H](CCCCNC(=O)OCC2C3CCc4nnn(CCOCCOCCOCCOCCOCCOCCOCCOCCOCCOCCNC(=O)CCOCC(COCCC(=O)NCCOCCOCCOCCOCCOCCOCCOCCOCCOCCOCCn5nnc6c5CCC5C(CC6)C5COC(=O)NCCCC[C@@H]5NC(=O)[C@@H]6CSCCC(=O)N7CN(CN(C7)C(=O)CCSC[C@@H](C(=O)N[C@@H](C)C(N)=O)NC(=O)[C@H](CCCC)NC(=O)[C@H](Cc7ccc(O)cc7)NC(=O)[C@@H]7CCCN7C(=O)[C@H](CC(=O)O)NC(=O)[C@H](C)NC5=O)C(=O)CCSC[C@H](NC(=O)[C@H](C)NC(C)=O)C(=O)N[C@@H]([C@@H](C)CC)C(=O)N[C@@H](CCC(=O)O)C(=O)N[C@@H](CCC(=O)O)C(=O)NCC(=O)N[C@@H](CCC(N)=O)C(=O)N[C@@H](Cc5ccc(O)cc5)C(=O)N6)(COCCC(=O)NCCOCCOCCOCCOCCOCCOCCOCCOCCOCCOCCn5nnc6c5CCC5C(CC6)C5COC(=O)NCCCC[C@@H]5NC(=O)[C@@H]6CSCCC(=O)N7CN(CN(C7)C(=O)CCSC[C@@H](C(=O)N[C@@H](C)C(N)=O)NC(=O)[C@H](CCCC)NC(=O)[C@H](Cc7ccc(O)cc7)NC(=O)[C@@H]7CCCN7C(=O)[C@H](CC(=O)O)NC(=O)[C@H](C)NC5=O)C(=O)CCSC[C@H](NC(=O)[C@H](C)NC(C)=O)C(=O)N[C@@H]([C@@H](C)CC)C(=O)N[C@@H](CCC(=O)O)C(=O)N[C@@H](CCC(=O)O)C(=O)NCC(=O)N[C@@H](CCC(N)=O)C(=O)N[C@@H](Cc5ccc(O)cc5)C(=O)N6)COCCC(=O)NCCOCCOCCOCCOCCOCCOCCOCCOCCOCCOCCn5nnc6c5CCC5C(CC6)C5COC(=O)NCCCC[C@@H]5NC(=O)[C@@H]6CSCCC(=O)N7CN(CN(C7)C(=O)CCSC[C@@H](C(=O)N[C@@H](C)C(N)=O)NC(=O)[C@H](CCCC)NC(=O)[C@H](Cc7ccc(O)cc7)NC(=O)[C@@H]7CCCN7C(=O)[C@H](CC(=O)O)NC(=O)[C@H](C)NC5=O)C(=O)CCSC[C@H](NC(=O)[C@H](C)NC(C)=O)C(=O)N[C@@H]([C@@H](C)CC)C(=O)N[C@@H](CCC(=O)O)C(=O)N[C@@H](CCC(=O)O)C(=O)NCC(=O)N[C@@H](CCC(N)=O)C(=O)N[C@@H](Cc5ccc(O)cc5)C(=O)N6)c4CCC32)NC(=O)[C@@H]2CSCCC(=O)N3CN(CN(C3)C(=O)CCSC[C@@H](C(=O)N[C@@H](C)C(N)=O)NC1=O)C(=O)CCSC[C@H](NC(=O)[C@H](C)NC(C)=O)C(=O)N[C@@H]([C@@H](C)CC)C(=O)N[C@@H](CCC(=O)O)C(=O)N[C@@H](CCC(=O)O)C(=O)NCC(=O)N[C@@H](CCC(N)=O)C(=O)N[C@@H](Cc1ccc(O)cc1)C(=O)N2` (some centres unmarked) [BCY8147], the “Average Fold EC50 Improvement relative to CD137L” value was determined as 50.58 and the “Average Relative Fold Induction relative to CD137L” value is recorded as 1.04.
